From patent US20180135134A1, “TARGETED SELECTION OF PATIENTS FOR TREATMENT WITH CORTISTATIN DERIVATIVES” (President and Fellows of Harvard College, priority 2015, published 2018)

Columns and labels:
[1] = tested on: RUNX1 target gene signatures; assay: Gene expression and gene set enrichment analysis (GSEA) in MOLM-14 cells; format: cell-based, human; conditions: 3 h 25 nM CA
Text: Kasumi-1 AML cells contain the RUNX1-RUNX1T1 fusion. A gene set was obtained that measured the genes in Kasumi-1 cells that increase in expression upon knockdown of RUNX1-RUNX1T1 (Ben-Ami, O. et al. Cell Reports 4, 1131-1143 (2013)). Using gene set enrichment analysis (Subramanian, A. et. al. Proc. Natl Acad. Sci. USA 102, 15545-15550 (2005)), this gene set, together with the Broad Molecular Signatures database (C2) was compared to genes differentially expressed in MOLM-14 cells upon treatment with 25 nM cortistatin A for 3 hrs (FIG. 2).
Leukemia cells were plated (12-well) in triplicate at 500,000-800,000 cells per ml and incubated in the presence of vehicle (0.1% DMSO) or CA (25 nM 3 h for K562, MOLM-14 and MV4;11; 10 nM 24 h for MOLM-14; 25 nM 4 h for SET-2, n=3 for each cell line). Cells were then washed twice with cold PBS, and snap frozen. RNA was isolated (RNeasy Plus Microkit, Qiagen or TRIzol, Life Technologies), processed, and, for K562, MOLM-14 and MV4;11, hybridized to the Human U133 Plus 2.0 microarray (Affymetrix). Microarrays were processed with Bioconductor packages affyQCReport for quality control and affy for background correction, summarization, and normalization using rma. Probe sets present in at least 1 sample (based on affy mas5call) and for which the interquartile range was >log2(1.2) were retained for further analysis. The limma Bioconductor package was used for differential expression analysis of CA-treated versus DMSO control samples (Benjamini-Hochberg adjusted P<0.05). SET-2 and HCT 116 gene expression was measured by RNA-seq. SET-2 RNA-seq libraries were prepared and processed using the Ion Torrent workflow. Reads were aligned in two passes, first with rnaStar (v.2.3.0e) then with BWA (v.0.7.5a) for remaining unmapped reads, both using default parameters. Mapped reads were merged and counted using HTSeq (v.0.5.3p3) with -s yes -m intersection-strict. The Bioconductor package DESeq was used for DE analysis (FDR<0.05 and twofold change) and normalization. HCT116 cells were grown to approximately 80% confluence and were treated with either 100 nM CA or DMSO for 3 h (n=3). Cells were then washed twice with cold PBS and scraped into TRIzol reagent (Life Technologies). After collecting the RNA, it was further purified using an RNeasy mini kit (Qiagen) with an on-column DNase I digestion. Libraries for Illumina sequencing were generated via the Illumina TruSEQ stranded mRNA prep kit. Samples were run in a single lane on an Illumina HiSEQ 2000 sequencer with a single read flow cell using 1×50-bp reads and a 6-cycle index read. Reads were mapped to the hgl9 reference genome using Tophat2 v.2.0.6 with custom settings including the setting of—library-type fr—firstrand to appropriately account for the stranded nature of the protocol. HTSeq v.0.6.1 was used to obtain read counts over annotated genes and differentially expressed genes were called by DESeq v.1.10.1 with a padj value of less than 0.01. Counts were normalized for GSEA using the limma voom function. Expression data for the I-BET151 comparison were downloaded from ArrayExpress (https://www.ebi.ac.uk/arrayexpress, accession E-MTAB-774) and processed files used as is. Gene lists were submitted to the DAVID web server (http://david.abcc.ncifcrf.gov) for functional annotation. GSEA version 2.09 was carried out using signal-to-noise on natural values as the metric. Signatures included curated gene sets (C2, v.3) downloaded from the Broad's MSigDB as well as signatures curated from in-house and published data sets.

[2] = tested on: RUNX1 target gene signatures; assay: Gene expression and gene set enrichment analysis (GSEA) in SET-2 cells; format: cell-based, human; conditions: 4 h 25 nM CA
Method: Leukemia cells were plated (12-well) in triplicate at 500,000-800,000 cells per ml and incubated in the presence of vehicle (0.1% DMSO) or CA (25 nM 3 h for K562, MOLM-14 and MV4;11; 10 nM 24 h for MOLM-14; 25 nM 4 h for SET-2, n=3 for each cell line). Cells were then washed twice with cold PBS, and snap frozen. RNA was isolated (RNeasy Plus Microkit, Qiagen or TRIzol, Life Technologies), processed, and, for K562, MOLM-14 and MV4;11, hybridized to the Human U133 Plus 2.0 microarray (Affymetrix). Microarrays were processed with Bioconductor packages affyQCReport for quality control and affy for background correction, summarization, and normalization using rma. […] SET-2 and HCT 116 gene expression was measured by RNA-seq. […] Reads were aligned in two passes, first with rnaStar (v.2.3.0e) then with BWA (v.0.7.5a) for remaining unmapped reads, both using default parameters. Mapped reads were merged and counted using HTSeq (v.0.5.3p3) with -s yes -m intersection-strict. […] Samples were run in a single lane on an Illumina HiSEQ 2000 sequencer with a single read flow cell using 1×50-bp reads and a 6-cycle index read. Reads were mapped to the hgl9 reference genome using Tophat2 v.2.0.6 with custom settings including the setting of—library-type fr—firstrand to appropriately account for the stranded nature of the protocol. […]

[3] = molecular target: CDK19 W105M (Homo sapiens, UniProt Q9BWU1, W105M); conditions: expression of CDK19 W105M; FIG. 9
Method: 5′-Flag-tagged CDK8 and CDK19 were cloned from pBabe.puro.CDK8.flag (Addgene 19758) and F-CDK8L (Addgene 24762) into pLVX-EF1alpha-IRES-mCherry and pLVX-EF1alpha-IRES-ZsGreen (Clontech) and transformed into E. coli (One Shot Stbl3, Invitrogen). Point mutations were introduced by whole-plasmid PCR (QuikChange II XL Site-Directed Mutagenesis Kit, Agilent). pLVX lentiviral vectors were co-transfected with psPASx and pMD2.G (Addgene) in 293T cells. After 48 h, viral supernatants were collected and passed through a 0.45 m filter (Millipore). For transductions, 24-well plates were coated with 500 μl of 20 μg ml RetroNectin (Clontech) at 4° C. overnight, blocked with 2% BSA for 30 min, washed with PBS, and 300-500 μl of viral supernatant was added. The plates were centrifuged (2,000 g, 1.5 h) and then set in an incubator. After 2 h, viral supernatant was removed and 500 μl per well of 200,000 cells per ml was added. After 1-3 days, the cells were expanded and isolated by FACS.

[4] = tested on: Caki-2; assay: Soft agar growth assay (Alamar Blue); conditions: clear cell renal cell carcinoma, Loss of function VHL mutation (VHL negative), 100 nM cortistatin A
Method: (§1) For the 62 cell lines 96 well suspension cell culture plates were prepared. 100 μL of the soft agar bottom layer (0.6% final concentration in complete medium) was poured and left to solidify. 50 μL of the soft agar top layer (0.4% final concentration) containing the corresponding cells and cell number were then added on top, solidified and incubated at 37° C., 10% CO2. After the soft agar had solidified, the test items were added at indicated final concentrations into the inner wells of the plate. Subsequently, the assay was incubated in cell culture incubators for 8 to 14 days. Finally, the assay was developed using Alamar Blue and upon 1-5 h of incubation at 37° C. fluorescence intensity was determined (excitation: 560 nm; emission: 590 nm). As low control, cells were treated with 1E-05M Staurosporine (6fold values). As high control, cells were treated with 0.1% DMSO (solvent control, 6 fold values).
(§2) Raw data were converted into percent soft agar growth relative to high controls (solvent 0.1% DMSO) and low controls (1E-05M Staurosporine), which were set to 100% and 0%, respectively.

[5] = tested on: SK.BR-3; assay: Soft agar growth assay (Alamar Blue); conditions: Breast cancer, HER2 overexpression, 100 nM cortistatin A
Method: as §1, §2

[6] = tested on: MKN-45; assay: Soft agar growth assay (Alamar Blue); conditions: Gastric cancer, MET amplification, 100 nM cortistatin A
Method: as §1, §2

[7] = tested on: SK-ES-1; assay: Soft agar growth assay (Alamar Blue); conditions: EWS-FLI1, 100 nM cortistatin A
Method: as §1, §2

[8] = tested on: U87MG; assay: Soft agar growth assay (Alamar Blue); conditions: Glioma, Inactivating mutations in ETV1, FLL1 and SMC3, 100 nM cortistatin A
Method: as §1, §2

[9] = tested on: MOLM-16; assay: Cellular proliferation assay (CellTiter-Glo); conditions: Homo sapiens
Method: (§3) All suspension cells were plated (96-well) in triplicate at 5,000-30,000 cells per well for testing (n=3). Viable cell number was estimated after 3, 7 and 10 days by counting viable cells from one vehicle well, generating a cell dilution series, transferring 20 ml per well in duplicate to a 384-well plate, and performing a linear regression to CellTiter-Glo (Promega) response (SPECTRAmax M3, Molecular Devices). Cells from all wells were also fourfold diluted in media and transferred in duplicate for CellTiter-Glo measurement. On days 3 and 7, an equal volume for all wells was split-back with fresh media and compound, such that the resulting cell density for the vehicle well matched the initial seeding density. For days 7 and 10, estimated cell number represents the split-adjusted theoretical cell number. […] For growth assays with inhibitors, n=3 for each concentration with two independent experiments.

[10] = tested on: MV4;11; assay: Cellular proliferation assay (CellTiter-Glo); conditions: Homo sapiens
Method: as §3

[11] = tested on: CMK-86; assay: Cellular proliferation assay (CellTiter-Glo); conditions: Homo sapiens
Method: as §3

[12] = tested on: MEG-01; assay: Cellular proliferation assay (CellTiter-Glo); conditions: Homo sapiens
Method: as §3

[13] = tested on: ARH-77; assay: Cellular proliferation assay (CellTiter-Glo); conditions: Homo sapiens
Method: as §3

[14] = tested on: TF-1; assay: Cellular proliferation assay (CellTiter-Glo); conditions: Homo sapiens
Method: (§4) All suspension cells were plated (96-well) in triplicate at 5,000-30,000 cells per well for testing (n=3). Viable cell number was estimated after 3, 7 and 10 days by counting viable cells from one vehicle well, generating a cell dilution series, transferring 20 ml per well in duplicate to a 384-well plate, and performing a linear regression to CellTiter-Glo (Promega) response (SPECTRAmax M3, Molecular Devices). Cells from all wells were also fourfold diluted in media and transferred in duplicate for CellTiter-Glo measurement. On days 3 and 7, an equal volume for all wells was split-back with fresh media and compound, such that the resulting cell density for the vehicle well matched the initial seeding density. For days 7 and 10, estimated cell number represents the split-adjusted theoretical cell number. HCT116 were plated (96-well) in triplicate at 250 cells per well. Cells were incubated in the presence of vehicle, 1 μM paclitaxel, or compound. On day 7, CellTiter-Blue (Promega) response was measured and values were normalized to vehicle (100% growth) and paclitaxel (0% growth). For growth assays with inhibitors, n=3 for each concentration with two independent experiments.

[15] = tested on: NB4; assay: Cellular proliferation assay (CellTiter-Glo); conditions: Homo sapiens, NB-4
Method: as §4

[16] = tested on: MKPL-1; assay: Cellular proliferation assay (CellTiter-Glo); conditions: Homo sapiens, 240 h
Method: as §3

Sequence of CDK19 W105M (Q9BWU1 whole entry W105M): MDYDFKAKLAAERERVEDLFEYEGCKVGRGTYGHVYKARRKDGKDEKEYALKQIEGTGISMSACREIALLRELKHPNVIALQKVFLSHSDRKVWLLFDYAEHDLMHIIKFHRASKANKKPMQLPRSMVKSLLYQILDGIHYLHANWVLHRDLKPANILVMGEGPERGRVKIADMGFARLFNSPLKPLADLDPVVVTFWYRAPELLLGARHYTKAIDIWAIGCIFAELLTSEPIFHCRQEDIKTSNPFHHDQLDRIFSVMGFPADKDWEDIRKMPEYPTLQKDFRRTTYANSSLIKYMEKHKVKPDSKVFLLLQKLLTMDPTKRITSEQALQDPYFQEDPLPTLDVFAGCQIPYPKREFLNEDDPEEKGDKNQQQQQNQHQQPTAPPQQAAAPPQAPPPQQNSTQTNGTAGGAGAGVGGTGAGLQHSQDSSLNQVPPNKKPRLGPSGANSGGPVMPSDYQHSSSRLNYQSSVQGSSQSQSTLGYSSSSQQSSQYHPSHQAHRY
Sequence of CDK19 W105M (P24863 whole entry partner): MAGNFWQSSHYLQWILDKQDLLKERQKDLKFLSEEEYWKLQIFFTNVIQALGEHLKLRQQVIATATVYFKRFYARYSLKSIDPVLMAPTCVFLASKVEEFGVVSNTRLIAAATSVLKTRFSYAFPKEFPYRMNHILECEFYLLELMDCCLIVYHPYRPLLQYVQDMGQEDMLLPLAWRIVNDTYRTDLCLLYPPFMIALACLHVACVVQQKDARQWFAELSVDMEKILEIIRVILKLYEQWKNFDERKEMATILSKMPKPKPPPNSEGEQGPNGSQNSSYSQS

With `CN(C)[C@H]1C[C@@]23CC[C@@]4(O2)C(=CC[C@]2(C)[C@@H](c5ccc6ccncc6c5)CC[C@H]24)C=C3[C@@H](O)[C@@H]1O` [Cortistatin A, cortistatin A] the NES ([1]; signature: Downregulated by RUNX1-RUNX1T1 in CD34+ cord blood cells) was 2.50, the NES ([1]; signature: Downregulated by RUNX1 knockdown in Kasumi-1 cells) was 2.21 and the NES ([1]; signature: Downregulated by RUNX1 knowndown in Jurkat cells) was 2.00. The NES ([1]; signature: Upregulated by C/EBPα in Burkitt lymphoma cells) was 2.56, the NES ([1]; signature: Upregulated by C/EBPα in K562 cells) was 2.22 and the NES ([1]; signature: Upregulated by C/EBPα in KCL22 cells) was 2.22. The NES ([1]; signature: Upregulated by RUNX1-RUNX1T1 knockdown in Kasumi-1 cells) was 2.78, the NES ([2]; signature: GATA1/GATA2/RunX1/FLI1/SCL Binding Sites in Mks) was 2.03 and the NES ([2]; signature: GATA1/SCL Binding Sites in Mks) was 2.27. The “growth of MOLM-14 cells expressing drug resistant allele” value [3] was “able to proliferate in the presence of cortistatin A”, the “% growth rel. to vehicle” value [4] was 18% and the “% growth rel. to vehicle” value [5] was 22%. The “% growth rel. to vehicle” value [6] was 27%, the “% growth rel. to vehicle” value [7] was 36% and the “% growth rel. to vehicle” value [8] was 36%. For the same molecule, the GI50 ([9]; MOLM16) was < 1 nM, the GI50 ([9]; MOLM16, 240 h) was ≤ 1 nM and the GI50 ([10]; MV4-11) was 6 nM. The GI50 ([10]; MV4-11, 240 h) was 6 nM, the GI50 ([11]; CMK-86) was 8 nM and the GI50 ([11]; CMK-86, 240 h) was 8 nM. It also gave a GI50 ([12]; MEG-01) of 9 nM, a GI50 ([12]; MEG-01, 240 h) of 9 nM and a GI50 [13] of 16 nM. The GI50 [14] was 350 nM, the GI50 [15] was > 1000 nM and the GI50 [16] was 1 nM.
